From US20160038519A1, “ADMINISTRATION OF KARENITECIN FOR THE TREATMENT OF ADVANCED OVARIAN CANCER, INCLUDING CHEMOTHERAPY-RESISTANT AND/OR THE MUCINOUS ADENOCARCINOMA SUB-TYPES” (BioNumerik Pharmaceuticals, Inc., priority 2014, published 2016) come the findings set out here.

For data set [1], the system named is mucinous cell lines (JHOM2B, OMC3, and COV644). Put plainly: SRB assay, joint statements for the mucinous cell lines incl. effect of BNP7787 on BNP1350-induced cytotoxicity. Type of data set: cell-based, human. Here is the method: In vitro studies were conducted in human mucinous ovarian cancer cell lines including JHOM2B, OMC3, and COV644. In one series of experiments, the dose response curves for BNP1350 (also known as Karenitecin), SN-38 (Irinotecan), and Topotecan were obtained and IC50 values were determined. In a second series of experiments, the effect of BNP7787 (2,2′-dithio-bis-ethane sulfonate; Tavocept) on BNP1350-induced cytotoxicity at selected BNP1350 concentrations was examined.
The JHOM2B and OMC3 cell lines were purchased from Riken Cell Bank (Japan). The COV644 cell line was purchased from SigmaAldrich. Cells were maintained as monolayered cultures in T-75 flasks and then seeded to microtiter plate wells for experiments. Population doubling-times for these three cell lines were long (i.e., exceeding 40 hours, and for some of the cell lines approaching 96 hours); therefore, the Applicants conducted initial pilot experiments and determined optimal seeding density to obtain A570 values in untreated controls that would fall within the linear range of the SRB assay after seven (7) total days of cell growth. […]
The cells were manipulated in a Microzone laminar flow hood traditionally used for maintaining aseptic environments around automated instrumentation such as microplate robots, and the like. […] Cells were counted using a ViCell counter (Beckman-Coulter). An automated plate washer/stacker (ELx405/BioStak from BioTek Instruments) and a microplate reader (SpectraMax Plus from Molecular Devices) were used for conducting the SRB assay and determining A570 values for wells in the plates and the percentage of control values. Prior to SRB assays, cell viability was monitored by evaluation of microtiter plate wells. […]
The sulforhodamine B (SRB) cytotoxicity assay was used to assess cell survival. […] Plates were agitated (gently) for 5 minutes and the absorbance values of the SRB dye-protein adduct at 570 nanometers (A570) were determined using an automated microtiter plate reader (SpectraMax Plus, Molecular Devices). […]
In general terms: In SRB staining, fixed cells bind dye roughly in proportion to their protein.

The subject of data set [2] is human breast, ovarian and lymphoma cancer cell lines. Put plainly: Paclitaxel induced apoptosis (PARP cleavage, Bcl-2 phosphorylation, DNA laddering). Type of data set: cell-based. From the text: (§1) Tavocept mediates the non-enzymatic xenobiotic modification of sulfur-containing amino acid residues (e.g., cysteine) on proteins. As an engineered, non-naturally occurring agent (i.e., xenobiotic), Tavocept is autocatalytic and requires no protein cofactor to cause the xenobiotic modification of cysteine, but appears to be specific for cysteine residues located within a particular structural context (i.e., not all cysteines in a protein are so modified). Tavocept-mediated, xenobiotic modification represents a novel mechanism of action for a cancer treating agent and can be compared, to a degree, with post-translational modifications of cysteine residues in proteins (see, Table 3, below). By way of non-limiting example, some of the important elements of Tavocept's effectiveness as a compound in the treatment of cancer are its selectivity for normal cells versus cancer cells and its absence of interference with the anti-cancer activity of cancer treating agents.

The test system of the next data set is human cancer cell lines. Put plainly: Paclitaxel- and platinum-induced cytotoxicity. Type of data set: cell-based.
Text: as §1

For the compound `O=S(=O)([O-])CCSSCCS(=O)(=O)[O-].[Na+].[Na+]` [BNP7787, 2,2′-dithio-bis-ethane sulfonate], the “Effect on BNP1350-induced cytotoxicity” value in data set [1] (BNP7787 1 or 10 mM added simultaneously with approximate IC50 and IC25 values of BNP1350, each cell line) is “no notable effect”. In data set [1] (BNP7787 alone, 1 and 10 mM), the “Effect on cell survival as single agent” value is given as “did not affect cell survival”. The “Interference with paclitaxel induced apoptosis” value in data set [2] is recorded as “does not interfere”. In addition, in the data set with human cancer cell lines, the “Interference with paclitaxel- and platinum-induced cytotoxicity” value was “not to interfere”.
